The values that follow come from patent US20130266526A1, “DIHYDROXYFUMARIC ACID DERIVATIVES AND THE USE THEREOF FOR SKIN LIGHTENING” (MERCK PATENT GMBH, priority 2010, published 2013).

“Also recorded” adds a separate entry of the source.

Test [1] has as its system B16V mouse melanoma cells. Kind of test: B16 V mouse melanoma cell test (melanin content after alpha-MSH stimulation). It counts as cell-based. The following applies: for Relative melanin content in %: DMSO control = 100, alpha-MSH 10^-8 M, absorption 405 nm. As to the method: B16V mouse melanoma cells (manufacturer: DSMZ; Article No.: ACC370) are transferred into RPMI medium (Invitrogen, Article No.: 31870), to which 10% of FBS (foetal bovine serum; Invitrogen, Article No.: 10499044), 2 mM L-glutamine (Invitrogen, Article No: 25030) and 1 mM sodium pyruvate (Invitrogen, Article No.: 11360) had additionally been added, and incubated at 37° C. and 5% CO2 for 72 h. The medium is separated off, and the cells are washed once with 10 ml of DPBS (Dulbecco's phosphate-buffered salines; Invitrogen, Article No.: 14190), and the medium is subsequently removed by suction. 1 ml of HyQtase cell detachment solution (Hyclone, Article No.: SV30030.01) is added to the cells. The bottle is swirled a number of times, and the HyQtase cell detachment solution is subsequently removed by suction. The cells are then incubated in the incubator at 37° C. and 5% CO2 for 5 min. The cells are taken up in the modified RPMI medium (see above), and the cell count is determined. To this end, the cells are stained with Trypan Blue and counted in a Neubauer counting chamber. The cells are subsequently sown out again in the modified RPMI medium (see above) in a defined cell count of 80,000 cells per well (6-well clear plate, TCT, PS (Nunc)).
The cells are incubated at 37° C. and 5% CO2 for 24 h, the medium is then removed. 1980 μl of the dilution of the respective substance to be tested are subsequently added. For this substance dilution, the substance is dissolved in DMSO and subsequently filtered through a sterile filter (0.2 μm, Millipore, Article No. SLLG013SL). The solution is then diluted with the modified RPMI medium (see above, but in this case the FBS content is only 5%) in such a way that the final concentration of the substance dilution has the desired final concentration as shown in Table 1.
20 μl of an alpha-MSH solution (alpha-melanocyte-stimulating hormone, DMSO, Sigma, Article No.: D2650) are then added, so that the alpha-MSH concentration in the well is 10^−8 M. The plate is subsequently incubated again at 37° C. and 5% CO2 for 24 h. The process described in this section is repeated a further twice in total.
After the final incubation period, the medium is removed by suction, and the cells are washed with 1000 μl of DPBS (Invitrogen, Article No.: 14190). The medium is again removed by suction. […] of HyQtase cell detachment solution (Hyclone, Article No.: SV30030.01) are added to the cells. The 6-well plate is swirled a number of times, and the HyQtase cell detachment solution is subsequently removed by suction. The cells are then incubated in the incubator at 37° C. and 5% CO2 for 5 min. The cells are taken up in 1.5 ml of DPBS (Invitrogen, Article No.: 14190) and transferred into a cup (SARSTEDT, Ref. 72.692.005). The cell count is subsequently determined. To this end, the cells are stained with Trypan Blue and counted in a Neubauer counting chamber. The cells centrifuged for 1 min at 3500 g. The pellets obtained are photographed, and the supernatant is subsequently removed by suction. The pellets are dissolved in 1 ml of 1N NaOH at 80° C. for 1 h and then cooled to RT. Four times 200 μl per cup (as quadruple determination) are subsequently pipetted into a 96-well plate (VWR, Article No.: 4100636981), and the absorption at a wavelength of 405 nm is determined (Safire, Tecan). The content of melanin can be determined in this way by means of a calibration line.

Test [2] relates to melanin. The following applies: substance alone; Example 5 of WO 01/66105 A1; cited from earlier work.

As to `O=C1O[C@H]([C@@H](O)CO)C(O)=C1O` [Ascorbic acid], in test [1] (3 mM), the “Relative melanin content in %” value was 77.4%. Regarding `O.O.O=C(O)/C(O)=C(\O)C(=O)O` [Dihydroxyfumaric acid dihydrate], the “Relative melanin content in %” value in test [1] (0.5 mM) turned out to be 13.4%. Moreover, the “skin-lightening action in comparison with known active compounds” value in test [1] (comparison of the working example (Table 1), dihydrate) was “exceeds the action of lactic acid, glycolic acid and even kojic acid by a multiple; also recorded: higher compared with the hydroxy acids lactic acid and glycolic acid”. `O=C(O)CO` [Glycolic acid]: the “Relative melanin content in %” value in test [1] (0.5 mM) is 67.3%.

For `O=c1cc(CO)occ1O` [Kojic acid], in test [1] (1 mM), the “Relative melanin content in %” value is on record as 59%.

As to `CC(O)C(=O)O` (stereo not shown) [Lactic acid], the “Relative melanin content in %” value in test [1] (11.1 mM) is on record as 57.8%. In addition, the melanin-reducing action in test [2] was 40%.
